In US9718813B2, “Imidazolin-5-one derivative useful as FASN inhibitors for the treatment of cancer” (Janssen Pharmaceutica, NV, priority 2013, dated 2017):

What was measured:
[1] = target: FASN Keto-reductase Domain (hFASN enzyme, full length) (Homo sapiens (Human), UniProt P49327); assay: Fatty Acid Synthase Keto-reductase Domain (FASN KR) Inhibition; format: biochemical; settings: NADPH oxidation at 340 nm, ethyl acetoacetate substrate
Method: After 20 minutes incubation at room temperature the plate was measured again (T2).
The decrease in absorbance was calculated as (Absorbance before incubation T1)−(Absorbance following incubation T2).
(§1) Raw data generated by the instrument were normalized to % Controlmin values, which were calculated as: % Controlmin=100*(x−mLC)/(mHC−mLC)
(§2) where mLC and mHC were the means of the low control wells and high control wells on the plate, after manual exclusion of outliers. A plot of Controlmin versus test compound concentration was fitted to a 4-parameter logistic curve using a non-linear least squares regression method.

[2] = target: hFASN enzyme (full length) (Homo sapiens (Human), UniProt P49327); assay: Fatty Acid Synthase (FASN) Inhibition Scintillation Proximity Assay; format: biochemical; settings: 3H-acetyl-CoA and malonyl-CoA substrates, SPA, mean if tested more than once
hFASN enzyme (full length), sequence (P49327 whole entry, the tested form may be a part): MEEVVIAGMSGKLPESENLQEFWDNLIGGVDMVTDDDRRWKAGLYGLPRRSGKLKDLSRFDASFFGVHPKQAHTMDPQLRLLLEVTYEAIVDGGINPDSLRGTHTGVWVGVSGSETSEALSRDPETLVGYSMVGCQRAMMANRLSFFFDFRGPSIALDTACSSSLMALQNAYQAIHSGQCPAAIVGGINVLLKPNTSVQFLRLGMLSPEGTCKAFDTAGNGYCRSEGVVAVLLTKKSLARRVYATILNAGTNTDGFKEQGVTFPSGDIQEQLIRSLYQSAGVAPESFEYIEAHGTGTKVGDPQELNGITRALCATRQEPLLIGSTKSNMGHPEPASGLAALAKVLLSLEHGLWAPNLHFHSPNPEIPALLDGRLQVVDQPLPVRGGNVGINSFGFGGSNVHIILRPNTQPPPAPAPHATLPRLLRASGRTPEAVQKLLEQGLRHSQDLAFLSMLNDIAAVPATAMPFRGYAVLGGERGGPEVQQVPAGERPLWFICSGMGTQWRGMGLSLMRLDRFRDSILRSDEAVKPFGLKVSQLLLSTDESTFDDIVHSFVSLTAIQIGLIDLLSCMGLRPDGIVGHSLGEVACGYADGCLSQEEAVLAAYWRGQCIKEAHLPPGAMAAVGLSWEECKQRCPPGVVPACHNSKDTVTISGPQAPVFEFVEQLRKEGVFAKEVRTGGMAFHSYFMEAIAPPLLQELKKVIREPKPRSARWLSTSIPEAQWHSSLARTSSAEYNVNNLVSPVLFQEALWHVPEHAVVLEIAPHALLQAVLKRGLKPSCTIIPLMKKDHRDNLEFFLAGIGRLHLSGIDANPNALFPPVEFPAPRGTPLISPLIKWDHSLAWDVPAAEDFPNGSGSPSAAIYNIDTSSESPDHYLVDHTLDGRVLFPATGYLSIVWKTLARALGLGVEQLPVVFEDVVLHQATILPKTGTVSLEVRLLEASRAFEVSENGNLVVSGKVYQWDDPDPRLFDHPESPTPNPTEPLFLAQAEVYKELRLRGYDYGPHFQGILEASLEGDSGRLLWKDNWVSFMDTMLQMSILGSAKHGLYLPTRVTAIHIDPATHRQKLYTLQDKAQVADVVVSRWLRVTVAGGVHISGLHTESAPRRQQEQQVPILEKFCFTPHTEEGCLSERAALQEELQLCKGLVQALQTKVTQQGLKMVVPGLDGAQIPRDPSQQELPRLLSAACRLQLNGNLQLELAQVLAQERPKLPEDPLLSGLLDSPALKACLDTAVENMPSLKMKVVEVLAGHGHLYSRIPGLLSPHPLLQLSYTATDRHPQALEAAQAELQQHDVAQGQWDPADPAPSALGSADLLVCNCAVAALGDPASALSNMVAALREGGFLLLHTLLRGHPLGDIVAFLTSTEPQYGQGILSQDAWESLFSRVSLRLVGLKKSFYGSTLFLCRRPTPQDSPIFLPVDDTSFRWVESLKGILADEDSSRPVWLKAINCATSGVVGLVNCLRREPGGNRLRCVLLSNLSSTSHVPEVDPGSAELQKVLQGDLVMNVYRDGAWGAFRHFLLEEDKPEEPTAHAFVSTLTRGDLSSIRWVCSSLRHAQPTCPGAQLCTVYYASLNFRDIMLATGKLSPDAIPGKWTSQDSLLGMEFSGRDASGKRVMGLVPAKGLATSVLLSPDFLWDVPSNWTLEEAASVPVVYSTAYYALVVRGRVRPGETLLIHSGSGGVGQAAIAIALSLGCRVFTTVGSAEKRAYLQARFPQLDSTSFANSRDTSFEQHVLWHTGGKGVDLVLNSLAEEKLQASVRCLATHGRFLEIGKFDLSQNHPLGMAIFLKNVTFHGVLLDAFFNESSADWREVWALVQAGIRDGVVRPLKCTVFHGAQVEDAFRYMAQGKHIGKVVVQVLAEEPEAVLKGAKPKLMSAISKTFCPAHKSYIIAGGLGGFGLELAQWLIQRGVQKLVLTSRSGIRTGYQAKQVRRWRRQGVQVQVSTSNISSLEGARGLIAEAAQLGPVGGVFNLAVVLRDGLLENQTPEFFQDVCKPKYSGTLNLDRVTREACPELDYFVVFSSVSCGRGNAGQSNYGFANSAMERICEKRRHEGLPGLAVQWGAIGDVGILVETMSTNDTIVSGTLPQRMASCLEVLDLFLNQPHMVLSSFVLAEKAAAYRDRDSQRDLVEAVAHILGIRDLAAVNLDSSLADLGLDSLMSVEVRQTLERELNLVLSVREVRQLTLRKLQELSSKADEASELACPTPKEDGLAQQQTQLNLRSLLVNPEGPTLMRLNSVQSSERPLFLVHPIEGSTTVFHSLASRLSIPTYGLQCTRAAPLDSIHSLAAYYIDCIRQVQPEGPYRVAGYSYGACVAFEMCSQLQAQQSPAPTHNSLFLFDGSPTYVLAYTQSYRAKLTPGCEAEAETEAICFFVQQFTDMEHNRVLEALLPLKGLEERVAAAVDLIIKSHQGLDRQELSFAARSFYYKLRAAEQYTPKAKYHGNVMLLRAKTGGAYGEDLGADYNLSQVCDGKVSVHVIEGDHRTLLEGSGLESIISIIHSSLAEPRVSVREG
Method: In this assay, inhibition of FASN activity is measured using ^3H-acetyl-CoA and malonyl-CoA as substrates. ^3H-Acetyl CoA is converted to ^3H-palmitate through a series of reactions by the FASN protein, which contains 7 functional domains and carries out 7 enzymatic reactions to ultimately produce ^3H-palmitate. The assay principle is based upon the fact that ^3H-acetyl-CoA is hydrophilic and the end product, ^3H-palmitate is hydrophobic.
10 μL assay buffer (100 mM KH2PO4 pH 7.5, 1 mM DTT) (20 μL in blanks) was added to a 384-well white Opti Plate plate (Perkin Elmer). 0.9 μL test compound (at concentrations of 30 μM, 10 μM, 3 μM, 1 μM, 0.30 μM, 0.10 μM, 0.03 μM and 0.01 μM)/DMSO and 10 μL hFASN enzyme (full length, 300 ng, purified in house) or 10 μL assay buffer was added to the wells. […] The reaction was stopped by adding 20 μL Streptavidin coupled imaging beads (25 mg/ml). After incubation for 30 minutes at room temperature in the dark, the 384 well plate was centrifuged at 1500 rpm for 3 minutes and was measured after at least 24 hrs by the LEADseeker™, measuring emission using a 610±20 nm pass filter.
as §1, §2

FASN Keto-reductase Domain (hFASN enzyme, full length), sequence (P49327 whole entry, the tested form may be a part): as above

FASN Keto-reductase Domain pIC50 [1] | Human FASN pIC50 [2] | Structure (SMILES)
7.14 | 7.23 | CC1(C)N=C(c2ccc(-c3ccc4cnccc4c3)cc2)N(C[C@@H]2CCN(C(=O)C3CC3)C2)C1=O [Compound 28, (R)-1-((1-(cyclopropanecarbonyl)pyrrolidin-3-yl)methyl)-2-(4-(isoquinolin-6-yl)phenyl)-4,4-dimethyl-1H-imidazol-5(4H)-one]
6.76 | 6.99 | Cc1cc(-c2ccc3c(c2)ncn3C)ccc1C1=NC(C)(C)C(=O)N1CC1CN(C(=O)C2(C)CC2)C1 [Compound 83, 4,4-dimethyl-2-(2-methyl-4-(1-methyl-1H-benzo[d]imidazol-5-yl)phenyl)-1-((1-(1-methylcyclopropanecarbonyl)azetidin-3-yl)methyl)-1H-imidazol-5(4H)-one]
6.62 | 7.02 | CC1(C)N=C(c2ccc(-c3ccc4cc(F)ccc4c3)cc2)N(CC2CN(C(=O)C3CC3)C2)C1=O [Compound 29, 1-((1-(cyclopropanecarbonyl)azetidin-3-yl)methyl)-2-(4-(6-fluoronaphthalen-2-yl)phenyl)-4,4-dimethyl-1H-imidazol-5(4H)-one]
6.75 | 7.40 | CC1(C)N=C(c2ccc(-c3ccc(-c4ccncc4)cc3)cc2)N(C[C@@H]2CCN(C(=O)C3CC3)C2)C1=O [Compound 15, (R)-1-((1-(cyclopropanecarbonyl)pyrrolidin-3-yl)methyl)-4,4-dimethyl-2-(4′-(pyridin-4-yl)-[1,1′-biphenyl]-4-yl)-1H-imidazol-5(4H)-one]
7.17 | 7.26 | CC1(C)N=C(c2ccc(-c3ccc4cc(F)ccc4c3)cc2)N(C[C@@H]2CCN(C(=O)C3CC3)C2)C1=O [Compound 30, (R)-1((1-(cyclopropanecarbonyl)pyrrolidin-3-yl)methyl)-2-(4-(6-fluoronaphthalen-2-yl)phenyl)-4,4-dimethyl-1H-imidazol-5(4H)-one]
6.80 | 7.10 | Cc1cc(-c2ccc3c(c2)ncn3C)ccc1C1=NC(C)(C)C(=O)N1C[C@@H]1CCN(C(=O)C2(C)CC2)C1 [Compound 85, (R)-4,4-dimethyl-2-(2-methyl-4-(1-methyl-1H-benzo[d]imidazol-5-yl)phenyl)-1-((1-(1-methylcyclopropanecarbonyl)pyrrolidin-3-yl)methyl)-1H-imidazol-5(4H)-one]
7.38 | 7.26 | Cn1cc(-c2ccc(-c3ccc(C4=NC(C)(C)C(=O)N4C[C@@H]4CCN(C(=O)C5(C)CC5)C4)c(F)c3)cc2)cn1 [Compound 74, (R)-2-(3-fluoro-4′-(1-methyl-1H-pyrazol-4-yl)-[1,1′-biphenyl]-4-yl)-4,4-dimethyl-1-((1-(1-methylcyclopropanecarbonyl)pyrrolidin-3-yl)methyl)-1H-imidazol-5(4H)-one]
6.33 | 7.17 | CC1(C)N=C(c2ccc(-c3ccc4cnccc4c3)cc2F)N(CC2CN(C(=O)C3CC3)C2)C1=O [Compound 56, 1-((1-(cyclopropanecarbonyl)azetidin-3-yl)methyl)-2-(2-fluoro-4-(isoquinolin-6-yl)phenyl)-4,4-dimethyl-1H-imidazol-5(4H)-one]
6.45 | 6.69 | CC1(C)N=C(c2ccc(-c3ccc4cccnc4c3)cc2)N(CC2CN(C(=O)C3CC3)C2)C1=O [Compound 24, 1-((1-(cyclopropanecarbonyl)azetidin-3-yl)methyl)-4,4-dimethyl-2-(4-(quinolin-7-yl)phenyl)-1H-imidazol-5(4H)-one]
7.23 | 7.45 | CC1(C(=O)N2CC(CN3C(=O)C(C)(C)N=C3c3ccc(-c4ccc5cc(F)ccc5c4)cc3F)C2)CC1 [Compound 72, 2-(2-fluoro-4-(6-fluoronaphthalen-2-yl)phenyl)-4,4-dimethyl-1-((1-(1-methylcyclopropanecarbonyl)azetidin-3-yl)methyl)-1H-imidazol-5(4H)-one]
6.26 | 6.69 | CC1(C)N=C(c2ccc(-c3c[nH]c4ccccc34)cc2F)N(CC2CN(C(=O)C3CC3)C2)C1=O [Compound 62, 1-((1-(cyclopropanecarbonyl)azetidin-3-yl)methyl)-2-(2-fluoro-4-(1H-indol-3-yl)phenyl)-4,4-dimethyl-1H-imidazol-5(4H)-one]
6.96 | 7.20 | Cc1cc(-c2ccc3c(cnn3C)c2)ccc1C1=NC(C)(C)C(=O)N1C[C@@H]1CCN(C(=O)C2(C)CC2)C1 [Compound 80, (R)-4,4-dimethyl-2-(2-methyl-4-(1-methyl-1H-indazol-5-yl)phenyl)-1-((1-(1-methylcyclopropanecarbonyl)pyrrolidin-3-yl)methyl)-1H-imidazol-5(4H)-one]
6.57 | 6.80 | CC1(C)N=C(c2ccc(-c3ccc(-c4ccncc4)cc3)cc2F)N(CC2CN(C(=O)C3CC3)C2)C1=O [Compound 22, 1-((1-(cyclopropanecarbonyl)azetidin-3-yl)methyl)-2-(3-fluoro-4′-(pyridin-4-yl)-[1,1′-biphenyl]-4-yl)-4,4-dimethyl-1H-imidazol-5(4H)-one]
5.86 | 6.29 | Cn1ncc2cc(-c3ccc(C4=NC(C)(C)C(=O)N4CC4CN(C(=O)C5CC5)C4)c(F)c3)ccc21 [Compound 32, 1-((1-(cyclopropanecarbonyl)azetidin-3-yl)methyl)-2-(2-fluoro-4-(1-methyl-1H-indazol-5-yl)phenyl)-4,4-dimethyl-1H-imidazol-5(4H)-one]
6.19 | 6.61 | Cn1ncc2cc(-c3ccc(C4=NC(C)(C)C(=O)N4CC4CN(C(=O)C5(O)CC5)C4)c(F)c3)ccc21 [Compound 78, 2-(2-fluoro-4-(1-methyl-1H-indazol-5-yl)phenyl)-1-((1-(1-hydroxycyclopropanecarbonyl)azetidin-3-yl)methyl)-4,4-dimethyl-1H-imidazol-5(4H)-one]
5.41 | 6.20 | CC1(C)N=C(c2ccc(-c3nc4ccccc4o3)cc2)N(C[C@@H]2CCN(C(=O)C3CC3)C2)C1=O [Compound 11, (R)-2-(4-(benzo[d]oxazol-2-yl)phenyl)-1-((1-(cyclopropanecarbonyl)pyrrolidin-3-yl)methyl)-4,4-dimethyl-1H-imidazol-5(4H)-one]
6.20 | 6.99 | Cn1cc(-c2ccc(-c3ccc(C4=NC(C)(C)C(=O)N4C[C@@H]4CCN(C(=O)C5CC5)C4)cc3)cc2)cn1 [Compound 16, (R)-1-((1-(cyclopropanecarbonyl)pyrrolidin-3-yl)methyl)-4,4-dimethyl-2-(4′-(1-methyl-1H-pyrazol-4-yl)-[1,1′-biphenyl]-4-yl)-1H-imidazol-5(4H)-one]
5.56 | 6.48 | CC1(C)N=C(c2ccc(-c3n[nH]c4ccccc34)cc2F)N(C[C@@H]2CCN(C(=O)C3CC3)C2)C1=O [Compound 57, (R)-1-((1-(cyclopropanecarbonyl)pyrrolidin-3-yl)methyl)-2-(2-fluoro-4-(1H-indazol-3-yl)phenyl)-4,4-dimethyl-1H-imidazol-5(4H)-one]
6.46 | 6.75 | CC1(C)N=C(c2ccc(-c3ccc4cccc(F)c4c3)cc2)N(CC2CN(C(=O)C3CC3)C2)C1=O [Compound 40, 1-((1-(cyclopropanecarbonyl)azetidin-3-yl)methyl)-2-(4-(8-fluoronaphthalen-2-yl)phenyl)-4,4-dimethyl-1H-imidazol-5(4H)-one]
7.60 | 7.37 | Cc1cc(-c2ccc3cc(F)ccc3c2)ccc1C1=NC(C)(C)C(=O)N1C[C@@H]1CCN(C(=O)C2(C)CC2)C1 [Compound 86, (R)-2-(4-(6-fluoronaphthalen-2-yl)-2-methylphenyl)-4,4-dimethyl-1-((1-(1-methylcyclopropanecarbonyl)pyrrolidin-3-yl)methyl)-1H-imidazol-5(4H)-one]
6.90 | 7.28 | CC1(C)N=C(c2ccc(-c3ccc(-c4ccncc4)cc3)cc2F)N(C[C@@H]2CCN(C(=O)C3CC3)C2)C1=O [Compound 46, (R)-1-((1-(cyclopropanecarbonyl)pyrrolidin-3-yl)methyl)-2-(3-fluoro-4′-(pyridin-4-yl)-[1,1′-biphenyl]-4-yl)-4,4-dimethyl-1H-imidazol-5(4H)-one]
6.86 | 7.32 | CC1(C)N=C(c2ccc(-c3ccc4[nH]ccc4c3)cc2)N(C[C@@H]2CCN(C(=O)C3CC3)C2)C1=O [Compound 1, (R)-2-(4-(1H-Indol-5-yl)phenyl)-1-((1-(cyclopropanecarbonyl)pyrrolidin-3-yl)methyl)-4,4-dimethyl-1H-imidazol-5(4H)-one]
